Experimental data reported in patent US9247759B2, “Identification of human T2R receptors that respond to bitter compounds that elicit the bitter taste in compositions, and the use thereof in assays to identify compounds that inhibit (block) bitter taste in compositions and use thereof” (SENOMYX, INC., priority 2007, dated 2016).
Read-outs that look alike come from different tables or passages of the source.

What was measured:
[1] = target: T1, hT2R14 (Homo sapiens (Human), UniProt Q9NYV8); assay: hT2R panel inhibition, transient HEK293 G16g44, agonist Aristolochic Acid 2 μM; assay type: cell-based; conditions: for inhibition at 25 µM: HEK293, compound at 25 μM
In short: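 Each hT2R was transiently transfected into HEK293 cells stably expressing G16g44 and assayed functionally for inhibition of agonist response. Agonists were applied at EC80: andrographolide at 0.5 mM for hT2R8 and aristolochic acid at 2 μM for hT2R14.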

[2] = target: hT2R13 (Homo sapiens (Human), UniProt Q9NYV9); assay: hT2R panel inhibition, transient HEK293 G16g44, agonist Oxyphenonium 1 mM; assay type: cell-based; conditions: HEK293, compound at 25 μM
In short: (§1)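 Receptor activity was measured in functional assays after single-receptor transient transfection; bitter agonists were used at their EC80 levels. A decrease in that activity when the test compound was added was taken as inhibition.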

[3] = target: hT2R7 (Homo sapiens (Human), UniProt Q9NYW3); assay: hT2R panel inhibition, transient HEK293 G16g44, agonist Chloroquine pH6.5 10 mM; assay type: cell-based; conditions: HEK293, compound at 25 μM
In short: as §1

[4] = tested on: hT2R44; assay: hT2R panel inhibition, transient HEK293 G16g44, agonist Denatonium 0.5 μM; assay type: cell-based, human; conditions: compound at 25 μM; for screening result against bitter receptor 44: receptor activated to EC80 with the corresponding agonist
In short: as §1

[5] = tested on: hT2R63; assay: hT2R panel inhibition, transient HEK293 G16g44, agonist Caffeine 1 mM or Andrographolide 100 μM; assay type: cell-based, human; conditions: compound at 25 μM; for screening result against bitter receptor 63: receptor activated to EC80 with the corresponding agonist
In short: as §1

[6] = target: hT2R9 (Homo sapiens (Human), UniProt Q9NYW1); assay: hT2R panel inhibition, transient HEK293 G16g44, agonist Ofloxacin 1 mM; assay type: cell-based; conditions: HEK293, compound at 25 μM
In short: as §1

[7] = target: T1, hT2R14; assay: hT2R14 antagonist high-throughput FLIPR assay, stable cell line with G16g44, agonist aristolochic acid; assay type: cell-based; conditions: read-out: IC50 on hT2R14 bitter receptor
In short: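 HEK293 cells stably expressing hT2R14 with chimeric G16g44 were stimulated with aristolochic acid (3 μM), giving 70-80% of maximal receptor activity. Test compounds were added together with the agonist, and antagonism was read as fluorescent calcium signal on FLIPR.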

[8] = target: hT2R61 (Homo sapiens (Human), UniProt P59537); assay: hT2R panel inhibition, transient HEK293 G16g44, agonist Aristolochic Acid 25 nM; assay type: cell-based; conditions: for inhibition at 25 µM: HEK293, compound at 25 μM
In short: as §1

[9] = target: hT2R10 (Homo sapiens (Human), UniProt Q9NYW0); assay: hT2R panel inhibition, transient HEK293 G16g44, agonist Strychnine 50 μM; assay type: cell-based; conditions: receptor activated to EC80 with the corresponding agonist
[10] = tested on: hT2R55; assay: hT2R panel inhibition, transient HEK293 G16g44, agonist Cinchonine 150 μM; assay type: cell-based, human; conditions: compound at 25 μM; receptor activated to EC80 with the corresponding agonist
In short: as §1

[11] = target: hT2R16 (Homo sapiens (Human), UniProt Q9NYV7); assay: hT2R panel inhibition, transient HEK293 G16g44, agonist Salicin 1 mM; assay type: cell-based; conditions: HEK293, compound at 25 μM; receptor activated to EC80 with the corresponding agonist; read-out: screening result against bitter receptor 16
In short: as §1

[12] = target: hT2R64 (Homo sapiens (Human), UniProt P59538); assay: hT2R panel inhibition, transient HEK293 G16g44, agonist Aristolochic Acid 1 μM; assay type: cell-based; conditions: receptor activated to EC80 with the corresponding agonist
In short: as §1

[13] = tested on: hT2R65; assay: hT2R panel inhibition, transient HEK293 G16g44, agonist Oleuropein 1 mM; assay type: cell-based, human; conditions: compound at 25 μM; receptor activated to EC80 with the corresponding agonist
In short: as §1

[14] = tested on: hT2R54; assay: hT2R panel inhibition, transient HEK293 G16g44, agonist Ranitidine 5 mM; assay type: cell-based, human; conditions: compound at 25 μM; receptor activated to EC80 with the corresponding agonist
In short: as §1

[15] = target: hT2R71 (Homo sapiens (Human), UniProt P59536); assay: hT2R panel inhibition, transient HEK293 G16g44, agonist Picric Acid 10 μM; assay type: cell-based; conditions: receptor activated to EC80 with the corresponding agonist
In short: as §1

[16] = target: hT2R3 (Homo sapiens (Human), UniProt Q9NYW6); assay: hT2R panel inhibition, transient HEK293 G16g44, agonist Chloroquine pH6.5 50 μM; assay type: cell-based; conditions: receptor activated to EC80 with the corresponding agonist
In short: as §1

[17] = target: hT2R51 (Homo sapiens (Human), UniProt P59533); assay: hT2R panel inhibition, transient HEK293 G16g44, agonist Prop 2.5 μM; assay type: cell-based; conditions: receptor activated to EC80 with the corresponding agonist
In short: as §1

[18] = tested on: hT2R67; assay: hT2R panel inhibition, transient HEK293 G16g44, agonist Andrographolide 5 μM; assay type: cell-based, human; conditions: compound at 25 μM; receptor activated to EC80 with the corresponding agonist
In short: as §1

[19] = target: hT2R75 (Homo sapiens (Human), UniProt P59540); assay: hT2R panel inhibition, transient HEK293 G16g44, agonist Strychnine 1 μM; assay type: cell-based; conditions: receptor activated to EC80 with the corresponding agonist
[20] = target: hT2R5 (Homo sapiens (Human), UniProt Q9NYW4); assay: hT2R panel inhibition, transient HEK293 G16g44, agonist Picoline 10 mM; assay type: cell-based; conditions: HEK293, compound at 25 μM; receptor activated to EC80 with the corresponding agonist; read-out: screening result against bitter receptor 5
In short: as §1

[21] = receptor activated to EC80 with agonist
[22] = compound at 25 μM, receptor activated to EC80 with the corresponding agonist
[23] = receptor activated to EC80 with the corresponding agonist, read-out: screening result against bitter receptor 13
[24] = receptor activated to EC80 with the corresponding agonist, read-out: screening result against bitter receptor 7
[25] = receptor activated to EC80 with the corresponding agonist, read-out: screening result against bitter receptor 9

hT2R13, sequence (Q9NYV9 whole entry): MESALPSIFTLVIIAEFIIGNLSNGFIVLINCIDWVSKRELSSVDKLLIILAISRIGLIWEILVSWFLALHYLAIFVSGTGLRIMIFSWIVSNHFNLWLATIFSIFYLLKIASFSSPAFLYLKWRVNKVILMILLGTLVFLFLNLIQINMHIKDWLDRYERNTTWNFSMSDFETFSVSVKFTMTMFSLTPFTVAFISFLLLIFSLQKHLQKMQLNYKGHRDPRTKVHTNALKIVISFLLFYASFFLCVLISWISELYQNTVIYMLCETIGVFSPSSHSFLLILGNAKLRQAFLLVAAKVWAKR
hT2R9, sequence (Q9NYW1 whole entry): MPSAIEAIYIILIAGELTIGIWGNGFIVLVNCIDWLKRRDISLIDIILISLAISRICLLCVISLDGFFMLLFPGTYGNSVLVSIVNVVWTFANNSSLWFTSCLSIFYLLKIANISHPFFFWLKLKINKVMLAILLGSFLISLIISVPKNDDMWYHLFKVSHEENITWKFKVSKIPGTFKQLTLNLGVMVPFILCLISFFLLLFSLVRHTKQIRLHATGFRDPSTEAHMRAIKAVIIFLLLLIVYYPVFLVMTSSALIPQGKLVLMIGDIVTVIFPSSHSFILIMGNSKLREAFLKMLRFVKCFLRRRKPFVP
hT2R7, sequence (Q9NYW3 whole entry): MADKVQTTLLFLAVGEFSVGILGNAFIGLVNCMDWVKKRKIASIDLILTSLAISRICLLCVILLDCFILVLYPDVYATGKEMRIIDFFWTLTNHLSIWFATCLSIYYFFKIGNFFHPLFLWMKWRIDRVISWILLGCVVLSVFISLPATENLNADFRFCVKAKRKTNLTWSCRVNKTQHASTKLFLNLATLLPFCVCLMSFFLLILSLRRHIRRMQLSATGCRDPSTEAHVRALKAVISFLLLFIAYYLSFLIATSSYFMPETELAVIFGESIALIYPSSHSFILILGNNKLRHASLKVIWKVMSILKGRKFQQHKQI
hT2R61, sequence (P59537 whole entry): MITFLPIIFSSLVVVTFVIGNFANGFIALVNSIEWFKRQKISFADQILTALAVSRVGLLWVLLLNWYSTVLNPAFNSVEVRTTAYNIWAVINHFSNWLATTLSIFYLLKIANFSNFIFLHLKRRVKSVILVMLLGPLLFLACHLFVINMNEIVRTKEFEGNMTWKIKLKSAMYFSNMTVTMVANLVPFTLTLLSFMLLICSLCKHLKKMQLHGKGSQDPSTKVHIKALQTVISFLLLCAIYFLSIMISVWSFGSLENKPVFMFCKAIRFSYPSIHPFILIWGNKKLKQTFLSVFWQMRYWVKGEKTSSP
T1 sequence (Q9NYV8 whole entry): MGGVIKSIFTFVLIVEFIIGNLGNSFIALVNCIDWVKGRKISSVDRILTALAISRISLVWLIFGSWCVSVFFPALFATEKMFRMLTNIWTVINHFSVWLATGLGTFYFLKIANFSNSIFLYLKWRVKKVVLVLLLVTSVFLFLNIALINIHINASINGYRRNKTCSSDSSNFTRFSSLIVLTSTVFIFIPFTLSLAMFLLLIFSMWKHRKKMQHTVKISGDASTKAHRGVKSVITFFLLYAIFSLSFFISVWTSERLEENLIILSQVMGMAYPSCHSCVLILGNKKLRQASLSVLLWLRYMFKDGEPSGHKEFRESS
hT2R10, sequence (Q9NYW0 whole entry): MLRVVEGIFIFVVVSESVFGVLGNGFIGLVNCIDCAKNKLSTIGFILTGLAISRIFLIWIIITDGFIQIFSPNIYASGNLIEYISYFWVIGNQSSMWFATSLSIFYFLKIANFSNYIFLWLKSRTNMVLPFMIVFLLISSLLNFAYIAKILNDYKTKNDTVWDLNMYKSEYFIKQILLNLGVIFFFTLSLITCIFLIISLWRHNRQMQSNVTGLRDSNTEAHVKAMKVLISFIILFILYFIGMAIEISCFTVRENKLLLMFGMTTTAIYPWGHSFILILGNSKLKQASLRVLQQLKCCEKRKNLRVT
hT2R75, sequence (P59540 whole entry): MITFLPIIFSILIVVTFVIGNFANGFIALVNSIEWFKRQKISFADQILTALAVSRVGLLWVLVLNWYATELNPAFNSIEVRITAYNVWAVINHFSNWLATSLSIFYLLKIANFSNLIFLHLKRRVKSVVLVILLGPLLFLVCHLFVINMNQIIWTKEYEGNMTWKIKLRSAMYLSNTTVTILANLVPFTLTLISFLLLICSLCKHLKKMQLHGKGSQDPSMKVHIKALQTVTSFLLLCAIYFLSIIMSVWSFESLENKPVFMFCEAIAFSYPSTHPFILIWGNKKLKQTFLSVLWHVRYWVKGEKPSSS
hT2R51, sequence (P59533 whole entry): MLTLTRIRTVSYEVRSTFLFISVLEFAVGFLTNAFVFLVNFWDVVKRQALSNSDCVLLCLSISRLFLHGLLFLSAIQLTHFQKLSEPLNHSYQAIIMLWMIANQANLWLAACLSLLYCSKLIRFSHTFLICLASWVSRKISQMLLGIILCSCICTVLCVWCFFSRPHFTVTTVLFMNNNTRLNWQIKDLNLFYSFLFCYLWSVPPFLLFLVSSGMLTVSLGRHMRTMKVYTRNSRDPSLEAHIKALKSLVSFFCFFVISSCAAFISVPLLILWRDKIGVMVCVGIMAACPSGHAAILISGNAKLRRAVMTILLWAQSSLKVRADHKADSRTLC
hT2R64, sequence (P59538 whole entry): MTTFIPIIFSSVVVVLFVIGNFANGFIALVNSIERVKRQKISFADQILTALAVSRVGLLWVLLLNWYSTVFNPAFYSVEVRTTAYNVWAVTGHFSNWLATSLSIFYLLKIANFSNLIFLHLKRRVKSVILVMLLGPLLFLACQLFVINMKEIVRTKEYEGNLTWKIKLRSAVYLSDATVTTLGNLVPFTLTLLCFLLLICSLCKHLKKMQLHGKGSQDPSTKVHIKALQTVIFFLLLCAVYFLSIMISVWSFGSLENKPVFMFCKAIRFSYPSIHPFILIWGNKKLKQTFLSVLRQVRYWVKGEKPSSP
hT2R16, sequence (Q9NYV7 whole entry): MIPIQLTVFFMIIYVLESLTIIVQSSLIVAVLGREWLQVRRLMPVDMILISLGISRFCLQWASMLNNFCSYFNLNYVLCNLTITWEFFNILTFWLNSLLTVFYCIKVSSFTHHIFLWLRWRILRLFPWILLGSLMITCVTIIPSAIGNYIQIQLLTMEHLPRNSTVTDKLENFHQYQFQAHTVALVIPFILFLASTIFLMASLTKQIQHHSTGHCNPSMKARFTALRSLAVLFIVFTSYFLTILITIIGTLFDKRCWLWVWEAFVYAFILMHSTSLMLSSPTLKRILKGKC
hT2R3, sequence (Q9NYW6 whole entry): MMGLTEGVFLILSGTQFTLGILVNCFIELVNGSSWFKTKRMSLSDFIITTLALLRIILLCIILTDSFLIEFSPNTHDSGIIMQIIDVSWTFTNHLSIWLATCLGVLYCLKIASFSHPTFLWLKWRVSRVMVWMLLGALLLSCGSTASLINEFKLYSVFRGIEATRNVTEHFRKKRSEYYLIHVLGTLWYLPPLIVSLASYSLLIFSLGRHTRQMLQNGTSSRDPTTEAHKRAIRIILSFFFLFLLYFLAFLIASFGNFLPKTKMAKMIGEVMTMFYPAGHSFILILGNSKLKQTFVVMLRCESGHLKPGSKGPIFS
hT2R71, sequence (P59536 whole entry): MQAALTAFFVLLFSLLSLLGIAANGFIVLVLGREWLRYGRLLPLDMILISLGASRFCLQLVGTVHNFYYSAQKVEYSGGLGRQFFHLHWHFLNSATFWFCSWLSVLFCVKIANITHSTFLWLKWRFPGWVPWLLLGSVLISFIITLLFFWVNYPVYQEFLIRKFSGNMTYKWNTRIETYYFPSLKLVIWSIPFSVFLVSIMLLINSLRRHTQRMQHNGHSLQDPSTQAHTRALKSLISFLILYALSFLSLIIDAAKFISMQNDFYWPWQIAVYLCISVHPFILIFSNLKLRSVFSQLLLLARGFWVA
hT2R5, sequence (Q9NYW4 whole entry): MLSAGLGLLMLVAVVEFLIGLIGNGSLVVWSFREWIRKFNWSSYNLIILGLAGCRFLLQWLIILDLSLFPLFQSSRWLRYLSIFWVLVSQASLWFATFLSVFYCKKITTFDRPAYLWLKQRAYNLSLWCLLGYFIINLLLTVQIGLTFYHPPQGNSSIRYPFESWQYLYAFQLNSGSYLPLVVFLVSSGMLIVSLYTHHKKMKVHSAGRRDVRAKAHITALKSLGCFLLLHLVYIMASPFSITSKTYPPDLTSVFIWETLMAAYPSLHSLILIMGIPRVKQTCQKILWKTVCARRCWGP

Compound: Cn1c(=O)c(=O)n(C)c2cc(S(=O)(=O)Nc3ccc(Cc4ccccn4)cc3)ccc21 [Example 6-4, 1,4-dimethyl-2,3-dioxo-N-(4-(pyridin-2-ylmethyl)phenyl)-1,2,3,4-tetrahydroquinoxaline-6-sulfonamide]
- inhibition at 25 µM ([1]; receptor activated to EC80 with agonist, read-out: inhibition of bitter receptor 14): > 80%
- inhibition at 25 µM ([2]; receptor activated to EC80 with agonist, read-out: inhibition of bitter receptor 13): > 80%
- inhibition at 25 µM ([3]; receptor activated to EC80 with agonist, read-out: inhibition of bitter receptor 7): 20 to 40%
- inhibition of bitter receptor 44 [4, 21]: + (20% to 40% inhibition = +)
- inhibition of bitter receptor 63 [5, 21]: + (20% to 40% inhibition = +)
- inhibition at 25 µM ([6]; receptor activated to EC80 with agonist, read-out: inhibition of bitter receptor 9): 20 to 40%
- IC50 [7]: 6.14 µM
- inhibition at 25 µM ([8]; receptor activated to EC80 with agonist, read-out: inhibition of bitter receptor 61): 20 to 40%

Compound: COc1ccc(CN(Cc2ccc(F)cc2)S(=O)(=O)c2ccc(C(=O)O)cc2)cc1 [Example 5-10, 4-(N-(4-fluorobenzyl)-N-(4-methoxybenzyl)sulfamoyl)benzoic acid]
- screening result against bitter receptor 14 [1, 22]: ++++ (80% or greater inhibition = ++++)
- screening result against bitter receptor 10 ([9]; compound at 25 μM): ++++ (80% or greater inhibition = ++++)
- inhibition at 25 µM [2, 23]: 40 to 60%
- screening result against bitter receptor 55 [10]: +++ (60% to 80% inhibition = +++)
- inhibition at 25 µM [11]: > 80%
- inhibition at 25 µM [3, 24]: 40 to 60%
- screening result against bitter receptor 64 ([12]; compound at 25 μM): +++ (60% to 80% inhibition = +++)
- screening result against bitter receptor 65 [13]: ++++ (80% or greater inhibition = ++++)
- screening result against bitter receptor 54 [14]: ++++ (80% or greater inhibition = ++++)
- screening result against bitter receptor 44 [4]: ++ (40% to 60% inhibition = ++)
- screening result against bitter receptor 63 [5]: ++++ (80% or greater inhibition = ++++)
- screening result against bitter receptor 71 ([15]; compound at 25 μM): +++ (60% to 80% inhibition = +++)
- screening result against bitter receptor 3 ([16]; compound at 25 μM): +++ (60% to 80% inhibition = +++)
- inhibition at 25 µM [6, 25]: 40 to 60%
- IC50 [7]: 1.97 µM
- screening result against bitter receptor 51 ([17]; compound at 25 μM): ++++ (80% or greater inhibition = ++++)
- screening result against bitter receptor 67 [18]: +++ (60% to 80% inhibition = +++)
- screening result against bitter receptor 61 [8, 22]: ++++ (80% or greater inhibition = ++++)
- screening result against bitter receptor 75 ([19]; compound at 25 μM): + (20% to 40% inhibition = +)

Compound: COc1ccc(CN(Cc2cccc(F)c2)S(=O)(=O)c2ccc(C(=O)O)cc2)cc1 [Example 5-12, 4-(N-(3-fluorobenzyl)-N-(4-methoxybenzyl)sulfamoyl)benzoic acid]
- inhibition at 25 µM ([1]; receptor activated to EC80 with the corresponding agonist, read-out: screening result against bitter receptor 14): > 80%
- inhibition at 25 µM ([9]; HEK293, read-out: screening result against bitter receptor 10, compound at 25 μM): > 80%
- inhibition at 25 µM [2, 23]: 20 to 40%
- screening result against bitter receptor 55 [10]: ++++ (80% or greater inhibition = ++++)
- inhibition at 25 µM [11]: 60 to 80%
- inhibition at 25 µM [3, 24]: 40 to 60%
- inhibition at 25 µM ([12]; HEK293, compound at 25 μM, read-out: screening result against bitter receptor 64): 60 to 80%
- screening result against bitter receptor 65 [13]: ++++ (80% or greater inhibition = ++++)
- screening result against bitter receptor 54 [14]: ++++ (80% or greater inhibition = ++++)
- screening result against bitter receptor 44 [4]: +++ (60% to 80% inhibition = +++)
- screening result against bitter receptor 63 [5]: ++++ (80% or greater inhibition = ++++)
- inhibition at 25 µM [20]: 40 to 60%
- inhibition at 25 µM ([15]; HEK293, compound at 25 μM, read-out: screening result against bitter receptor 71): > 80%
- inhibition at 25 µM ([16]; HEK293, compound at 25 μM, read-out: screening result against bitter receptor 3): 60 to 80%
- inhibition at 25 µM [6, 25]: 40 to 60%
- inhibition at 25 µM ([17]; HEK293, compound at 25 μM, read-out: screening result against bitter receptor 51): > 80%
- screening result against bitter receptor 67 [18]: +++ (60% to 80% inhibition = +++)
- inhibition at 25 µM ([8]; receptor activated to EC80 with the corresponding agonist, read-out: screening result against bitter receptor 61): > 80%
- inhibition at 25 µM ([19]; HEK293, read-out: screening result against bitter receptor 75, compound at 25 μM): 20 to 40%
